Several values for one entry are separate records, joined by “and”; a condition that tells them apart may be missing. Equal entries are not always repeated.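 Protocol summary: plate cells (96-well), add compound at 5 concentrations, incubate 48 h, interpolate endpoints linearly. At the GI50, growth is halved.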 Activity calls are given as the source filed them. No stated cut-off is given here; in the data, active = GI50 up to about 1.1 µM and inactive = higher.
Key:
Test in all cases: DTP human tumour cell line panel, 48 h
[1] = test system: KM12
[2] = test system: RPMI-8226
[3] = test system: RXF 393
[4] = test system: SW-620
[5] = test system: NCI-H460
[6] = test system: SN12C
[7] = test system: Hs-578T
[8] = test system: CCRF-CEM
[9] = test system: OVCAR-8
[10] = test system: SK-MEL-5
[11] = test system: LOX IMVI
[12] = test system: HL-60
[13] = test system: MDA-N
[14] = test system: SNB-75
[15] = test system: SF-268
[16] = test system: SF-295
[17] = test system: MOLT-4
[18] = test system: IGROV-1
[19] = test system: 786-0
[20] = test system: HCT-116
[21] = test system: NCI-H522
[22] = test system: K562
[23] = test system: HT-29
[24] = test system: BT-549
[25] = test system: MDA-MB-435
[26] = test system: NCI/ADR-RES
[27] = test system: A498
[28] = test system: NCI-H226
[29] = test system: Malme-3M
[30] = test system: SK-MEL-2
[31] = test system: MCF7
[32] = test system: UACC-62
[33] = test system: UO-31
[34] = test system: MDA-MB-231
[35] = test system: SK-MEL-28
[36] = test system: HOP-92
[37] = test system: TK-10
[38] = test system: U-251
[39] = test system: DU-145
[40] = test system: OVCAR-5
[41] = test system: PC-3
[42] = test system: NCI-H23
[43] = test system: OVCAR-4
[44] = test system: SR
[45] = test system: ACHN
[46] = test system: A549
[47] = test system: OVCAR-3
[48] = test system: UACC-257
[49] = test system: M14
[50] = test system: SF-539
[51] = test system: COLO 205
[52] = test system: HCT-15
[53] = test system: SNB-19
[54] = test system: CAKI-1
[55] = test system: T47D
[56] = test system: HCC 2998
[57] = test system: HOP-62
[58] = test system: EKVX
[59] = test system: SK-OV-3

## CC(=O)OCC1OC(OC(C)(C)CC/C=C(\C)[C@@H]2C/C=C(\C)CC/C=C(\C)CC2)C(O)C(O)C1OC(C)=O (stereo partly drawn)
[1]
  GI50: 26.7 µM (inactive) and 19 µM (inactive)
[2]
  GI50: 25.5 µM (inactive) and 19.7 µM (inactive)
[3]
  GI50: > 100 µM (inactive)
[4]
  GI50: 26.1 µM (inactive) and 24.2 µM (inactive)
[5]
  GI50: 17.9 µM (inactive) and 23.2 µM (inactive)
[6]
  GI50: 32 µM (inactive) and 20 µM (inactive)
[7]
  GI50: 0.3 µM (active)
[8]
  GI50: 22.5 µM (inactive) and 14 µM (inactive)
[9]
  GI50: 20.6 µM (inactive) and 28.6 µM (inactive)
[10]
  GI50: 17.5 µM (inactive) and 30.1 µM (inactive)
[11]
  GI50: 18.5 µM (inactive) and 21.3 µM (inactive)
[12]
  GI50: 28.5 µM (inactive)
[13]
  GI50: 24.7 µM (inactive) and 19.7 µM (inactive)
[14]
  GI50: 17.4 µM (inactive) and 17.1 µM (inactive)
[15]
  GI50: 27 µM (inactive) and 19.8 µM (inactive)
[16]
  GI50: 22.9 µM (inactive) and 42.3 µM (inactive)
[17]
  GI50: 17 µM (inactive) and > 10 µM (inactive)
[18]
  GI50: 17.5 µM (inactive) and 21.6 µM (inactive)
[19]
  GI50: 39.4 µM (inactive) and 23.6 µM (inactive)
[20]
  GI50: 25 µM (inactive) and 22.9 µM (inactive)
[21]
  GI50: 18.9 µM (inactive) and 11.3 µM (inactive)
[22]
  GI50: 28.7 µM (inactive) and 22.4 µM (inactive)
[23]
  GI50: 24.5 µM (inactive) and 14.9 µM (inactive)
[24]
  GI50: 33.9 µM (inactive) and 19.7 µM (inactive)
[25]
  GI50: 32.8 µM (inactive) and 20.2 µM (inactive)

## CC(=O)OCC1OC(n2c3c(cc(C#N)c2=S)CCCCCC3)C(OC(C)=O)C(OC(C)=O)C1OC(C)=O (stereo not drawn)
[26]
  GI50: > 100 µM (inactive)
[1]
  GI50: > 100 µM (inactive)
[2]
  GI50: 55.5 µM (inactive)
[27]
  GI50: > 100 µM (inactive)
[28]
  GI50: > 100 µM (inactive)
[29]
  GI50: > 100 µM (inactive)
[30]
  GI50: > 100 µM (inactive)
[31]
  GI50: > 100 µM (inactive)
[3]
  GI50: > 100 µM (inactive)
[5]
  GI50: 42.2 µM (inactive)
[32]
  GI50: 54.7 µM (inactive)
[33]
  GI50: > 100 µM (inactive)
[6]
  GI50: > 100 µM (inactive)
[7]
  GI50: 97.9 µM (inactive)
[34]
  GI50: > 100 µM (inactive)
[8]
  GI50: 47.3 µM (inactive)
[35]
  GI50: > 100 µM (inactive)
[9]
  GI50: 69.8 µM (inactive)
[10]
  GI50: 72.1 µM (inactive)
[11]
  GI50: 21.5 µM (inactive)
[12]
  GI50: 36.2 µM (inactive)
[36]
  GI50: > 100 µM (inactive)
[37]
  GI50: > 100 µM (inactive)
[14]
  GI50: 27.2 µM (inactive)
[38]
  GI50: 91 µM (inactive)
[39]
  GI50: > 100 µM (inactive)
[15]
  GI50: > 100 µM (inactive)
[40]
  GI50: > 100 µM (inactive)
[16]
  GI50: > 100 µM (inactive)
[17]
  GI50: 26.1 µM (inactive)
[18]
  GI50: > 100 µM (inactive)
[19]
  GI50: 99.8 µM (inactive)
[41]
  GI50: > 100 µM (inactive)
[20]
  GI50: 37.8 µM (inactive)
[42]
  GI50: > 100 µM (inactive)
[43]
  GI50: > 100 µM (inactive)
[44]
  GI50: 36.8 µM (inactive)
[45]
  GI50: > 100 µM (inactive)
[46]
  GI50: > 100 µM (inactive)
[47]
  GI50: > 100 µM (inactive)
[48]
  GI50: > 100 µM (inactive)
[49]
  GI50: > 100 µM (inactive)
[50]
  GI50: > 100 µM (inactive)
[51]
  GI50: 84.1 µM (inactive)
[21]
  GI50: 76.4 µM (inactive)
[52]
  GI50: 97.5 µM
[22]
  GI50: 32.1 µM (inactive)
[53]
  GI50: > 100 µM (inactive)
[54]
  GI50: > 10 µM (inactive)
[55]
  GI50: 5.2 µM (inactive)
[23]
  GI50: 41.2 µM (inactive)
[56]
  GI50: 27.5 µM (inactive)
[24]
  GI50: > 100 µM (inactive)
[57]
  GI50: > 100 µM (inactive)
[25]
  GI50: > 100 µM (inactive)

## Cc1cccc(Nc2cn(COCc3ccccc3)c(=O)[nH]c2=O)c1
[58]
  GI50: 15.3 µM (inactive)
[26]
  GI50: 14.4 µM (inactive)
[1]
  GI50: > 100 µM (inactive)
[2]
  GI50: 38.8 µM (inactive)
[27]
  GI50: > 100 µM (inactive)
[31]
  GI50: 72.6 µM (inactive)
[3]
  GI50: 56 µM (inactive)
[4]
  GI50: > 100 µM (inactive)
[5]
  GI50: > 100 µM (inactive)
[32]
  GI50: > 100 µM (inactive)
[33]
  GI50: > 100 µM (inactive)
[6]
  GI50: > 100 µM (inactive)
[7]
  GI50: 49.3 µM (inactive)
[8]
  GI50: > 100 µM (inactive)
[35]
  GI50: > 100 µM (inactive)
[10]
  GI50: > 100 µM (inactive)
[11]
  GI50: 56.2 µM (inactive)
[12]
  GI50: > 100 µM (inactive)
[36]
  GI50: > 100 µM (inactive)
[13]
  GI50: > 100 µM (inactive)
[38]
  GI50: > 100 µM (inactive)
[39]
  GI50: > 100 µM (inactive)
[15]
  GI50: 50 µM (inactive)
[40]
  GI50: > 100 µM (inactive)
[16]
  GI50: 72.1 µM (inactive)
[17]
  GI50: > 100 µM (inactive)
[18]
  GI50: 29.4 µM (inactive)
[19]
  GI50: > 100 µM (inactive)
[41]
  GI50: > 100 µM (inactive)
[20]
  GI50: 90.8 µM (inactive)
[42]
  GI50: > 100 µM (inactive)
[43]
  GI50: 41.5 µM (inactive)
[44]
  GI50: > 100 µM (inactive)
[45]
  GI50: > 100 µM (inactive)
[46]
  GI50: > 100 µM (inactive)
[47]
  GI50: > 100 µM (inactive)
[48]
  GI50: > 100 µM (inactive)
[49]
  GI50: > 100 µM (inactive)
[51]
  GI50: 84.1 µM (inactive)
[21]
  GI50: 10.2 µM (inactive)
[52]
  GI50: > 100 µM
[22]
  GI50: > 100 µM (inactive)
[53]
  GI50: > 100 µM (inactive)
[54]
  GI50: > 100 µM (inactive)
[23]
  GI50: 64.6 µM (inactive)
[56]
  GI50: > 100 µM (inactive)
[24]
  GI50: 69.2 µM (inactive)
[57]
  GI50: 20.8 µM (inactive)
[25]
  GI50: > 100 µM (inactive)

## C=CC(Br)(CBr)CCC(Cl)C(C)C (stereo not drawn)
[58]
  GI50: 9.66 µM (inactive)
[1]
  GI50: 1.47 µM (inactive)
[2]
  GI50: 0.35 µM (active)
[27]
  GI50: 13.7 µM (inactive)
[28]
  GI50: 7.28 µM (inactive)
[29]
  GI50: 1.58 µM (inactive)
[30]
  GI50: 1.92 µM (inactive)
[31]
  GI50: 1.39 µM (inactive)
[3]
  GI50: 1.6 µM (inactive)
[4]
  GI50: 1.69 µM (inactive)
[5]
  GI50: 1.88 µM (inactive)
[32]
  GI50: 1.5 µM (inactive)
[33]
  GI50: 1.64 µM (inactive)
[6]
  GI50: 1.73 µM (inactive)
[7]
  GI50: 2.58 µM (inactive)
[34]
  GI50: 1.4 µM (inactive)
[8]
  GI50: 0.364 µM (active)
[35]
  GI50: 1.58 µM (inactive)
[59]
  GI50: 4.25 µM (inactive)
[10]
  GI50: 1.85 µM (inactive)
[11]
  GI50: 1.15 µM (inactive)
[12]
  GI50: 0.561 µM (active)
[36]
  GI50: 2.04 µM (inactive)
[13]
  GI50: 1.45 µM (inactive)
[37]
  GI50: 1.88 µM (inactive)
[14]
  GI50: 1.49 µM (inactive)
[38]
  GI50: 1.66 µM (inactive)
[39]
  GI50: 2.72 µM (inactive)
[15]
  GI50: 1.56 µM (inactive)
[40]
  GI50: 2.44 µM (inactive)
[16]
  GI50: 1.84 µM (inactive)
[17]
  GI50: 1.06 µM (active)
[18]
  GI50: 2.5 µM (inactive)
[41]
  GI50: 3.45 µM (inactive)
[20]
  GI50: 3.12 µM (inactive)
[42]
  GI50: 2.74 µM (inactive)
[43]
  GI50: 1.49 µM (inactive)
[44]
  GI50: 0.481 µM (active)
[45]
  GI50: 2.53 µM (inactive)
[46]
  GI50: 4.69 µM (inactive)
[47]
  GI50: 2.02 µM (inactive)
[48]
  GI50: 2.25 µM (inactive)
[49]
  GI50: 1.7 µM (inactive)
[50]
  GI50: 2.31 µM (inactive)
[51]
  GI50: 3.38 µM (inactive)
[21]
  GI50: 1.42 µM (inactive)
[22]
  GI50: 1.33 µM (inactive)
[53]
  GI50: 2.2 µM (inactive)
[54]
  GI50: 2.62 µM (inactive)
[23]
  GI50: 1.66 µM (inactive)
[56]
  GI50: < 0.01 µM (active)
[24]
  GI50: 1.6 µM (inactive)
[57]
  GI50: 1.8 µM (inactive)
[25]
  GI50: 1.82 µM (inactive)

— ChEMBL document CHEMBL1201862, “PubChem BioAssay data set” (2004)
